Data set [1] concerns the target T1, Recombinant human Factor B catalytic domain (Homo sapiens (Human), UniProt P00751). Description: Factor B binding assay by TR-FRET. The note with it: 10 nM his-tagged Factor B catalytic domain, 100 nM tracer, 1 h.
A short description of data set [2]: Ocular pharmacokinetic studies in rats. To be noted: 2 mpk PO. The data set is classed as in vivo, brown Norway rats. As to the method: Three-month-old brown Norway rats were administered the Example compound via oral gavage as a suspension in 2 equiv 1 N HCl+30% PEG300+50% (20% Cremophor EL in water). Ocular tissues from both eyes and plasma were collected from rats per time point at 0.25, 0.5, 1, 6, and 24 h after administration. The ocular tissues collected were the retina and the posterior eye cup (RPE/choroid and posterior sclera). The tissues were diluted with phosphate buffered saline containing 10% acetonitrile and homogenized, centrifuged prior to analyses. The concentrations of the test article were measured in plasma and supernatants of ocular homogenates by HPLC-MS/MS in four individual retinas, four individual posterior eye cups, and two individual plasma samples at each time point. Chromatographic separation was carried out on Waters BEH C18 Column (2.1×50 mm, 1.7 μm) column (MAC-MOD Analytical, Chadds Ford, PA), using a gradient elution method with water and acetonitrile, both containing 0.025% formic acid—1 mM NH4OAc. Mass spectrometric measurements in positive electrospray ionization were directed at quantifying the mass transition with [M+H]^+ as the precursor ion on API6500, triple quadruple mass spectrometer (Sciex, Framingham, MA). The relevant pharmacokinetic parameters were estimated using noncompartmental methods using WinNonlin (Enterprise, version 8.2).

Data set [3] addresses T1, Recombinant human Factor B catalytic domain. Description: biochemical.
For data set [4] the target is unchanged. The data set can be described thus: Target residence time of Factor B inhibitors by surface plasmon resonance (SPR). The note with it: for Residence time: 1/koff; for t1/2: binding half-life ln2/koff.
The test system of data set [5] is alternative complement pathway (AP). The data set can be described thus: Ex vivo assessment of plasma PD inhibition (AP MAC deposition ELISA in rat serum). More on the design: species or system Sprague Dawley rats. The note with it: 2 mg/kg oral. (In general: ELISA stands for enzyme-linked immunosorbent assay.)
The next data set deals with AP complement activation. The data set can be described thus: In vivo assessment of mouse AP complement functional activity (LPS-induced plasma C3b/iC3b/C3c ELISA). Details: species or system C57BL/6 mice. To be noted: at 20 h, 20 mg/kg oral. As to the method: Female C57BL/6 mice were administered with Example 57 formulation (20 mg/kg in 0.5% (w/v) methyl cellulose, 0.5% (v/v) Tween 80) by oral gavage 20 h before the end of study. To activate complement pathway, lipopolysaccharide (LPS) from Salmonella typhimurium (Sigma) was injected i.p. (2.5 mg/kg) 7.5 h prior to the end of the study. Control mice were given i.p. injection of saline solution and dosed with vehicle by oral gavage. Plasma samples were collected from mice at the end of the study. AP complement activation was assessed by measuring plasma C3 cleavage products C3b/iC3b/C3c with ELISA using rat anti-mouse C3b/iC3b/C3c monoclonal antibody (clone 2/11, Hycult biotech, 0.1ug/well) and goat anti-Rat IgG (whole molecule)-Peroxidase (Sigma) diluted in TBST (TBS/0.05% Tween20).

[6] abbreviates: read-out: Factor B TR-FRET IC50.

The structures appear in SMILES notation. Like-named read-outs stand apart in the source and are kept apart here.

As usually defined, the IC50 is the concentration that inhibits the measured activity by half. Broadly, the Kd is the free concentration of one partner at which half of the binding sites on the other are occupied at equilibrium, for simple one-to-one binding. Broadly, the inhibition is the drop in the measured response relative to a control, in per cent.

T1 sequence (P00751 470-764): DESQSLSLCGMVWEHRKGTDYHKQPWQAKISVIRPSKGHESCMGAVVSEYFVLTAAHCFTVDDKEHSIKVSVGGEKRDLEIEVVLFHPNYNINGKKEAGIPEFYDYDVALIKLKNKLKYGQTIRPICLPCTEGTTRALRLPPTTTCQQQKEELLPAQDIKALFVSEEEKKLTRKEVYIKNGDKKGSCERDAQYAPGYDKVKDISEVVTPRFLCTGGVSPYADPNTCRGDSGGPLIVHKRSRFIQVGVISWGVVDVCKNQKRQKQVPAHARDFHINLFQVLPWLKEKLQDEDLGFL

As to `COc1cc(C)c2[nH]ccc2c1CN1CCC2(CC1c1ccc(C(=O)O)cc1)CC2(F)F` (single isomer, unassigned) [8 (Isomer 1), 4-(1,1-difluoro-6-((5-methoxy-7-methyl-1H-indol-4-yl)methyl)-6-azaspiro[2.5]octan-5-yl)benzoic acid], the IC50 in data set [1] (Factor B TR-FRET IC50 (nM)) was 7 nM. In addition, the AUC(0-t) in data set [2] (Brown Norway, rat, 2 mg/kg, plasma, read-out: Plasma AUC0-last) came to 10800 nM·h; in data set [2] (Brown Norway, rat, 2 mg/kg, retina, read-out: Retina AUC0-last), 2230 nM·h. In addition, in data set [2] (Brown Norway, rat, in vivo, 2 mg/kg, read-out: T½ (converted)), the half-life was 6.4 h.
As to `COc1cc(C)c2[nH]ccc2c1CN1CCC2(CC1c1ccc(C(=O)O)cc1)CC2F` (single isomer, unassigned) [27 (Isomer 1), 4-(1-fluoro-6-((5-methoxy-7-methyl-1H-indol-4-yl)methyl)-6-azaspiro[2.5]octan-5-yl)benzoic acid], in data set [1] (Factor B TR-FRET IC50 (nM)), the IC50 was determined as 5 nM. The Kd in data set [3] is 6.25 nM. In addition, in data set [4], the “Residence time” value is 191.4 s and the “t1/2” value stood at 0.0367 h.
Taken in the same sequence, the figures for `COc1cc(C)c2[nH]ccc2c1CN1CCC2(CC1c1ccc(C(=O)O)cc1)CC2F` (single isomer, unassigned) [27 (Isomer 2), 4-(1-fluoro-6-((5-methoxy-7-methyl-1H-indol-4-yl)methyl)-6-azaspiro[2.5]octan-5-yl)benzoic acid] were 5.3 nM, 4.25 nM, 308.9 s and 0.0592 h.
Consider `COc1cc(C)c2[nH]ccc2c1CN1CC2CC3(CC3)CC2C1c1ccc(C(=O)O)cc1` (single isomer, unassigned) [29 (Isomer 1), 4-(2-((5-methoxy-7-methyl-1H-indol-4-yl)methyl)hexahydro-1H-spiro[cyclopenta[c]pyrrole-5,1′-cyclopropan]-1-yl)benzoic acid], for which, in data set [1] (Factor B TR-FRET IC50 (nM)), the 50% inhibitory concentration (IC50) stood at 7.5 nM. In addition, in data set [3], the Kd turned out to be 7.03 nM. In addition, in data set [4], the “Residence time” value stood at 236.4 s and the “t1/2” value turned out to be 0.0453 h.
In the case of `COc1cc(C)c2[nH]ccc2c1CN1CCC2(C[C@H]1c1ccc(-c3noc(=O)[nH]3)cc1)CC(F)(F)C2` (single isomer, unassigned) [47 (Isomer 1)], the IC50 in data set [1] (Factor B TR-FRET IC50 (nM)) is less than 2 nM. Moreover, the Kd in data set [3] came to 0.53 nM. In data set [4], the “Residence time” value is 4130 s and the “t1/2” value is 0.795 h.
As for `Cc1cc(C)c2[nH]ccc2c1CN1CC2(CCCCC2)C1c1ccc(C(=O)O)cc1` (stereo not drawn) [Example 16, 4-(2-((5,7-dimethyl-1H-indol-4-yl)methyl)-2-azaspiro[3.5]nonan-1-yl)benzoic acid], the IC50 in data set [1] (Factor B TR-FRET IC50 (nM)) stood at 305 nM.
For the compound `COc1cc(C)c2[nH]ccc2c1CN1CC(CF)CC1c1ccc(C(=O)O)cc1` (stereo not drawn) [Example 21, 4-(4-(fluoromethyl)-1-((5-methoxy-7-methyl-1H-indol-4-yl)methyl)pyrrolidin-2-yl)benzoic acid], the IC50 in data set [1] (setting [6]) stood at 844 nM.
As to `COc1cc(C)c2[nH]ccc2c1CN1CC2CN(CC(F)F)CC2C1c1ccc(C(=O)O)cc1` (stereo not drawn) [Example 23, 4-(5-(2,2-difluoroethyl)-2-((5-methoxy-7-methyl-1H-indol-4-yl)methyl)octahydropyrrolo[3,4-c]pyrrol-1-yl)benzoic acid], the IC50 in data set [1] (setting [6]) was 143 nM.
Same read-out and setting: with `COc1cc(C)c2[nH]ccc2c1CN1CCCCC1c1ccc(C(=O)O)c(C(F)F)c1` (stereo not drawn) [Example 25, 2-(difluoromethyl)-4-(1-((5-methoxy-7-methyl-1H-indol-4-yl)methyl)piperidin-2-yl)benzoic acid] the figure was 322 nM.
Take `COc1cc(C)c2[nH]ccc2c1CN1CC2(CCOCC2)CC1c1ccc(C(=O)O)cc1` (stereo not drawn) [Example 30, 4-(2-((5-methoxy-7-methyl-1H-indol-4-yl)methyl)-8-oxa-2-azaspiro[4.5]decan-3-yl)benzoic acid]: the IC50 in data set [1] (Factor B TR-FRET IC50 (nM)) came to 132 nM.
Still for that read-out and setting: with `COc1cc(C)c2[nH]ccc2c1CN1CCC2(CCC(F)(F)C2)CC1c1ccc(C(=O)O)cc1` (stereo not drawn) [Example 41, 4-(2,2-difluoro-8-((5-methoxy-7-methyl-1H-indol-4-yl)methyl)-8-azaspiro[4.5]decan-7-yl)benzoic acid] the figure was 20.1 nM.
On to `Cc1cc(C2CC2)c(CN2CCC3(C[C@H]2c2ccc(C(=O)O)cc2)CC(F)(F)C3)c2cc[nH]c12` [Example 53], for which, in data set [1] (setting [6]), the IC50 is less than 2 nM. For the same compound, in data set [4], the “t1/2” value worked out at 1.214 h.
On to `COc1cc(C)c2[nH]ccc2c1CN1CCC2(C[C@H]1c1ccc(C(=O)O)cc1C)CC(F)(F)C2` [Example 57], for which, in data set [5] (at 24 h), the “inhibition in rat ex-vivo PD assay” value is reported as “sustained inhibition”. Also, the IC50 in data set [1] (setting [6]) is less than 2 nM. In addition, the “inhibition in mouse in-vivo PD assay” value in the data set on AP complement activation was “sustained inhibition”. Further, in data set [2], the “T½” value is reported as 22.2 h. In addition, the “Plasma AUC0-last (nM · h)” value in data set [2] (plasma) is listed as 12,668 nM · h. The “Retina AUC0-last” value in data set [2] (retina) amounted to 796.4 nM·h. In addition, in data set [4], the “t1/2” value is 1.188 h.
For `COc1cc(C)c2[nH]ccc2c1CN1CCC2(C[C@H]1c1ccc(C(=O)O)c(C)c1)CC(F)(F)C2` [Example 62], the IC50 in data set [1] (setting [6]) is less than 2 nM.
Still for that read-out and setting: with `COc1cc(C)c2[nH]ccc2c1CN1CCC2(C[C@H]1c1ccc(C(=O)O)c(F)c1)CC(F)(F)C2` [Example 64] the figure was less than 2 nM; with `CCc1cc(C)c2[nH]ccc2c1CN1CCC2(C[C@H]1c1ccc(C(=O)O)cc1)CC(F)(F)C2` [Example 80], less than 2 nM.
On the same count and under the same terms, with `C=C(F)c1cc(C)c2[nH]ccc2c1CN1CCC2(C[C@H]1c1ccc(C(=O)O)cc1)CC(F)(F)C2` [Example 81] the figure was 47.3 nM; with `[2H]C([2H])([2H])Oc1cc(C)c2[nH]ccc2c1CN1CCC2(C[C@H]1c1ccc(C(=O)O)cc1)CC(F)(F)C2` [Example 82], less than 2 nM; with `Cc1cc(C(=O)O)ccc1[C@@H]1CC2(CCN1Cc1c(C3CC3)cc(C)c3[nH]ccc13)CC(F)(F)C2` [Example 83], less than 2 nM.
Same read-out and setting: with `COc1cc(C)c2[nH]ccc2c1CN1CCC2(C[C@H]1c1ccc3c(C(=O)O)cccc3c1)CC(F)(F)C2` [Example 84] the figure was 3.1 nM; with `COc1cc(C)c2[nH]ccc2c1CN1CCC2(C[C@H]1c1ccc(C(=O)O)c3ccccc13)CC(F)(F)C2` [Example 85], less than 2 nM.
As to `CCOc1cc(C)c2[nH]ccc2c1CN1CCC2(C[C@H]1c1ccc(C(=O)O)cc1)CC(F)(F)C2` [Example 86], in data set [1] (setting [6]), the IC50 worked out at 2.1 nM.
For the compound `CCO[C@H]1CCN(Cc2c(OC)cc(C)c3[nH]ccc23)[C@H](c2ccc(C(=O)O)cc2)C1` [Iptacopan, reference compound], in data set [5] (Rattus norvegicus, rats, 24 h post dose, 50% serum, read-out: Serum PD inhibition (%) at 24 h (2 mpk)), the inhibition at 2 mg/kg is -3%.

The values above are taken from US20250243186A1, “PIPERIDINYL INDOLE DERIVATIVES, PREPARATION METHODS AND MEDICINAL USES THEREOF” (HANSOH BIO LLC, priority 2021, published 2025).
